Source: PMC7156458, “Synthetic biology based construction of biological activity-related library of fungal decalin-containing diterpenoid pyrones” (Nature Communications, 2020)

Molecular target: Aβ42 (Homo sapiens, UniProt P05067)
Assay: Th-T (thioflavin-T) assay of Aβ42 aggregation
Assay type: biochemical

Sequence of Aβ42 (P05067 672-713): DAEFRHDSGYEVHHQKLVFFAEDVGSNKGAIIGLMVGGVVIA

Compound: C=C1CCC2C(C)(CCC=C(C)C)C(O)CCC2(C)C1Cc1c(OC)oc(CO)c(C)c1=O (stereo not drawn) [Compound 12]
- Fig. 7a Th-T reading, mean of three wells (column suffix _20, reading M101): 2.081
- Fig. 7a Th-T reading, mean of three wells (column suffix _20, reading M102): 2.083
- Fig. 7a Th-T reading, mean of three wells (column suffix _20, reading M103): 2.082
- Fig. 7a Th-T reading, mean of three wells (column suffix _20, reading M104): 2.11
- Fig. 7a Th-T reading, mean of three wells (column suffix _20, reading M105): 2.097
- Fig. 7a Th-T reading, mean of three wells (column suffix _20, reading M106): 2.107
- Th-T fluorescence, mean of three wells (Fig. 7a) (column suffix _50, measurement M19): 1.719
- Th-T fluorescence, mean of three wells (Fig. 7a) (column suffix _50, measurement M20): 1.709
- Th-T fluorescence, mean of three wells (Fig. 7a) (column suffix _50, measurement M21): 1.707
- Th-T fluorescence, mean of three wells (Fig. 7a) (column suffix _50, measurement M22): 1.694
- Th-T fluorescence, mean of three wells (Fig. 7a) (column suffix _50, measurement M23): 1.672
- Th-T fluorescence, mean of three wells (Fig. 7a) (column suffix _50, measurement M24): 1.656
- Th-T fluorescence, mean of three wells (Fig. 7a) (column suffix _50, measurement M25): 1.634
- Th-T fluorescence, mean of three wells (Fig. 7a) (column suffix _50, measurement M26): 1.64
- Th-T fluorescence, mean of three wells (Fig. 7a) (column suffix _50, measurement M27): 1.6183
- Th-T fluorescence, mean of three wells (Fig. 7a) (column suffix _50, measurement M28): 1.623
- Th-T fluorescence, mean of three wells (Fig. 7a) (column suffix _50, measurement M29): 1.606
- Th-T assay signal, mean of three wells (Fig. 7a) (column suffix _50, reading M1): 1.526
- Th-T assay signal, mean of three wells (Fig. 7a) (column suffix _50, reading M2): 1.765
- Th-T assay signal, mean of three wells (Fig. 7a) (column suffix _50, reading M3): 2.409
- Th-T assay signal, mean of three wells (Fig. 7a) (column suffix _50, reading M4): 2.663
- Th-T assay signal, mean of three wells (Fig. 7a) (column suffix _50, reading M5): 2.734
- Th-T assay signal, mean of three wells (Fig. 7a) (column suffix _50, reading M6): 2.555
- Th-T assay signal, mean of three wells (Fig. 7a) (column suffix _50, reading M7): 2.454
- Th-T assay signal, mean of three wells (Fig. 7a) (column suffix _50, reading M8): 2.181
- Th-T assay signal, mean of three wells (Fig. 7a) (column suffix _50, reading M9): 2.034
- Th-T assay signal, mean of three wells (Fig. 7a) (column suffix _50, reading M10): 1.99
- Th-T assay signal, mean of three wells (Fig. 7a) (column suffix _50, reading M11): 1.977
- Th-T assay signal, mean of three wells (Fig. 7a) (column suffix _50, reading M12): 1.8801
- Th-T assay signal, mean of three wells (Fig. 7a) (column suffix _50, reading M13): 1.841
- Th-T assay signal, mean of three wells (Fig. 7a) (column suffix _50, reading M14): 1.819
- Th-T assay signal, mean of three wells (Fig. 7a) (column suffix _50, reading M15): 1.788
- Th-T assay signal, mean of three wells (Fig. 7a) (column suffix _50, reading M16): 1.774
- Th-T assay signal, mean of three wells (Fig. 7a) (column suffix _50, reading M17): 1.76
- Th-T assay signal, mean of three wells (Fig. 7a) (column suffix _50, reading M18): 1.746
- Fig. 7a Th-T reading, mean of three wells (column suffix _50, reading M85): 1.4
- Fig. 7a Th-T reading, mean of three wells (column suffix _50, reading M86): 1.399
- Fig. 7a Th-T reading, mean of three wells (column suffix _50, reading M87): 1.399
- Fig. 7a Th-T reading, mean of three wells (column suffix _50, reading M88): 1.392
- Fig. 7a Th-T reading, mean of three wells (column suffix _50, reading M89): 1.396
- Fig. 7a Th-T reading, mean of three wells (column suffix _50, reading M90): 1.401
- Fig. 7a Th-T reading, mean of three wells (column suffix _50, reading M91): 1.4
- Fig. 7a Th-T reading, mean of three wells (column suffix _50, reading M92): 1.405
- Fig. 7a Th-T reading, mean of three wells (column suffix _50, reading M93): 1.424
- Fig. 7a Th-T reading, mean of three wells (column suffix _50, reading M94): 1.4149
- Fig. 7a Th-T reading, mean of three wells (column suffix _50, reading M95): 1.419
- Fig. 7a Th-T reading, mean of three wells (column suffix _50, reading M96): 1.4015
- Fig. 7a Th-T reading, mean of three wells (column suffix _50, reading M97): 1.401
- Fig. 7a Th-T reading, mean of three wells (column suffix _50, reading M98): 1.397
- Fig. 7a Th-T reading, mean of three wells (column suffix _50, reading M99): 1.397
- Fig. 7a Th-T reading, mean of three wells (column suffix _50, reading M100): 1.41
- Fig. 7a Th-T reading, mean of three wells (column suffix _50, reading M101): 1.399
- Fig. 7a Th-T reading, mean of three wells (column suffix _50, reading M102): 1.3937
- Fig. 7a Th-T reading, mean of three wells (column suffix _50, reading M103): 1.417
- Fig. 7a Th-T reading, mean of three wells (column suffix _50, reading M104): 1.419
- Fig. 7a Th-T reading, mean of three wells (column suffix _50, reading M105): 1.42
- Fig. 7a Th-T reading, mean of three wells (column suffix _50, reading M106): 1.412
- Th-T fluorescence, mean of three wells (compound at 10, reading M41 of time course): 3.264
- Th-T fluorescence, mean of three wells (compound at 10, reading M42 of time course): 3.266
- Th-T fluorescence, mean of three wells (compound at 10, reading M43 of time course): 3.271
- Th-T fluorescence, mean of three wells (compound at 10, reading M44 of time course): 3.34
- Th-T fluorescence, mean of three wells (compound at 10, reading M45 of time course): 3.373
- Th-T fluorescence, mean of three wells (compound at 10, reading M46 of time course): 3.378
- Th-T fluorescence, mean of three wells (compound at 10, reading M47 of time course): 3.37
- Th-T fluorescence, mean of three wells (compound at 10, reading M48 of time course): 3.386
- Th-T fluorescence, mean of three wells (compound at 10, reading M49 of time course): 3.382
- Th-T fluorescence, mean of three wells (compound at 10, reading M50 of time course): 3.418
- Th-T fluorescence, mean of three wells (compound at 10, reading M51 of time course): 3.408
- Th-T fluorescence, mean of three wells (compound at 10, reading M52 of time course): 3.423
- Th-T fluorescence, mean of three wells (compound at 10, reading M53 of time course): 3.4353
- Th-T fluorescence, mean of three wells (compound at 10, reading M54 of time course): 3.443
- Th-T fluorescence, mean of three wells (compound at 10, reading M55 of time course): 3.439
- Th-T fluorescence, mean of three wells (compound at 10, reading M56 of time course): 3.46
- Th-T fluorescence, mean of three wells (compound at 10, reading M57 of time course): 3.454
- Th-T fluorescence, mean of three wells (compound at 10, reading M58 of time course): 3.457
- Th-T fluorescence, mean of three wells (compound at 10, reading M59 of time course): 3.451
- Th-T fluorescence, mean of three wells (compound at 10, reading M60 of time course): 3.452
- Th-T fluorescence, mean of three wells (compound at 10, reading M61 of time course): 3.431
- Th-T fluorescence, mean of three wells (compound at 10, reading M62 of time course): 3.428
- Th-T fluorescence, mean of three wells (compound at 20, reading M41 of time course): 2.229
- Th-T fluorescence, mean of three wells (compound at 20, reading M42 of time course): 2.216
- Th-T fluorescence, mean of three wells (compound at 20, reading M43 of time course): 2.22
- Th-T fluorescence, mean of three wells (compound at 20, reading M44 of time course): 2.199
- Th-T fluorescence, mean of three wells (compound at 20, reading M45 of time course): 2.1759
- Th-T fluorescence, mean of three wells (compound at 20, reading M46 of time course): 2.17
- Th-T fluorescence, mean of three wells (compound at 20, reading M47 of time course): 2.178
- Th-T fluorescence, mean of three wells (compound at 20, reading M48 of time course): 2.1654
- Th-T fluorescence, mean of three wells (compound at 20, reading M49 of time course): 2.1539
- Th-T fluorescence, mean of three wells (compound at 20, reading M50 of time course): 2.1392
- Th-T fluorescence, mean of three wells (compound at 20, reading M51 of time course): 2.1473
- Th-T fluorescence, mean of three wells (compound at 20, reading M52 of time course): 2.131
- Th-T fluorescence, mean of three wells (compound at 20, reading M53 of time course): 2.116
- Th-T fluorescence, mean of three wells (compound at 20, reading M54 of time course): 2.151
- Th-T fluorescence, mean of three wells (compound at 20, reading M55 of time course): 2.154
- Th-T fluorescence, mean of three wells (compound at 20, reading M56 of time course): 2.133
- Th-T fluorescence, mean of three wells (compound at 20, reading M57 of time course): 2.135
- Th-T fluorescence, mean of three wells (compound at 20, reading M58 of time course): 2.143
- Th-T fluorescence, mean of three wells (compound at 20, reading M59 of time course): 2.117
- Th-T fluorescence, mean of three wells (compound at 20, reading M60 of time course): 2.117
- Th-T fluorescence, mean of three wells (compound at 20, reading M61 of time course): 2.0819
- Th-T fluorescence, mean of three wells (compound at 20, reading M62 of time course): 2.098
- Th-T fluorescence, mean of three wells (compound at 50, reading M41 of time course): 1.5174
- Th-T fluorescence, mean of three wells (compound at 50, reading M42 of time course): 1.513
- Th-T fluorescence, mean of three wells (compound at 50, reading M43 of time course): 1.502
- Th-T fluorescence, mean of three wells (compound at 50, reading M44 of time course): 1.5
- Th-T fluorescence, mean of three wells (compound at 50, reading M45 of time course): 1.494
- Th-T fluorescence, mean of three wells (compound at 50, reading M46 of time course): 1.488
- Th-T fluorescence, mean of three wells (compound at 50, reading M47 of time course): 1.489
- Th-T fluorescence, mean of three wells (compound at 50, reading M48 of time course): 1.494
- Th-T fluorescence, mean of three wells (compound at 50, reading M49 of time course): 1.481
- Th-T fluorescence, mean of three wells (compound at 50, reading M50 of time course): 1.475
- Th-T fluorescence, mean of three wells (compound at 50, reading M51 of time course): 1.492
- Th-T fluorescence, mean of three wells (compound at 50, reading M52 of time course): 1.492
- Th-T fluorescence, mean of three wells (compound at 50, reading M53 of time course): 1.469
